Here are results for 1 substance from patent publication US20080193563A1, “HARNESSING WNT SIGNALING TO RESTRICT HIV REPLICATION” (priority 2006, published 2008).

For the experiment, the system named is HIV reverse transcription in U87MG. Kind of experiment: Early and late HIV reverse transcription in U87MG, real-time PCR. It counts as cell-based. The conditions noted are these: IFNγ pre-treated 24 h. As for the experimental part: FIG. 31 Comparative analysis of early and late HIV reverse transcription (RT) between infected untreated and infected IFN-γ treated astrocytes. U87MG cells were left untreated or treated with IFN-γ prior to HIV infection as described in Materials and Methods. Total DNA was isolated and amplified for tierh early HIV reverse transcription (reverse transcription initiation) using primer pair R and U5 at 24 h postinfection or late HIV transcription using primer pair R and 5NC at 96 h postinfection. (A) Comparison of amplified HIV DNA between untreated and IFN-γ-treated cultures. […] Rn stands for reading normalized, which equals the SyberGreen value divided by the ROX reference dye value.
Restriction to HIV replication is not at the level of HIV entry and reverse transcription. […] Early HIV reverse transcription was evaluated by real-time PCR at […] post-infection by amplifying with the R/U5 primer pairs, which detect negative-strand “strong-stop” DNA indicative of reverse transcription initiation. […]
Levels of HIV reverse transcription are similar between untreated and IFN-γ-treated astrocytes. […] Early HIV reverse transcription was evaluated by real-time PCR at 24 h postinfection by amplification with the R/U5 primer pair, which detects negative-strand “strong-stop” DNA indicative of reverse transcription initiation). […]

Consider “IFNγ: cytokine secreted by lymphocytes, activated microglia and astrocytes; used to prime astrocytes”, for which the “Early HIV reverse transcription DNA (R/U5) vs untreated” value is reported as “similar” and the “Late HIV reverse transcription DNA (R/5NC) vs untreated” value is “similar”.
